Measurements from patent publication US20020137767A1, “Methods for treating addictive disorders” (priority 1999, published 2002).
Several values for one entry are separate records, joined by “and”; a condition that tells them apart may be missing. Equal values may be shown once.

Experiments:
[1] = tested on: locomotion induced by d-amphetamine sulphate; conditions: male CD rats, cited from earlier work
[2] = tested on: stereotypy induced by d-amphetamine sulphate; conditions: ip; d-amphetamine sulphate 10 mg/kg sc; male CD rats; cited from earlier work
catalepsy = conditions: ip; male CD rats; cited from earlier work
D1-like receptors = conditions: po; male CD rats; cited from earlier work
D2-like receptors = conditions: po; male CD rats; cited from earlier work
5-HT2 receptors = conditions: po; male CD rats; cited from earlier work
D1-receptors = conditions: po pretreatment; D2-mediated atypical jerking; male SD rats; cited from earlier work
[3] = tested on: discriminative stimulus effects of cocaine; experiment: Cocaine drug discrimination, pretreatment protocol (Example 2); assay type: in vivo, rhesus monkeys (Macaca mulatta)
Method: During the week, all food was delivered after the experimental session, whereas at weekends, food was delivered between 9 a.m. and noon. Water was freely available at all times.
A computer, located in a separate room, controlled the operant panels and data collection.
Discrimination Training: Discrimination training was conducted 5 days per week during daily sessions composed of multiple cycles. Each cycle consisted of a 15 min time-out period followed by a 5 min response period. During the time-out, all stimulus lights were off, and responding had no scheduled consequences. During the response period, the right and left response keys were transilluminated red or green, and monkeys could earn up to 10 food pellets by responding under a FR 30 schedule of food presentation. For one monkey, the left key was illuminated green and the right key was illuminated red; the colors of the response-keys were reversed for the other three monkeys. The center key was not illuminated at any time and responding on it had no scheduled consequences.
On training days, monkeys were given either saline or 0.40 mg/kg cocaine, i.m., 10 min before the response period. Following the administration of saline, responding on only the green key (the saline-appropriate key) produced food, whereas following administration of 0.40 mg/kg cocaine, only responding on the red key (the drug-appropriate key) produced food. Responses on the inappropriate key reset the FR requirement on the appropriate key. Sessions consisted of 1 to 5 cycles and, if cocaine was administered, this occurred only during the last cycle. Thus, training days consisted of 0 to 5 saline cycles followed by 0 or 1 cocaine cycle.
During each response period, 3 dependent variables were determined:
1) Percent injection-appropriate responding prior to delivery of the first reinforcer.
2) Percent injection-appropriate responding for the entire response period.
Monkeys meeting the following criteria during the training day immediately proceeding the test day and in at least 6 of 7 consecutive training sessions before this, were used for discrimination testing:
1) the percent injection-appropriate responding prior to delivery of the first reinforcer was ≧80% for all cycles;
2) the percent injection-appropriate responding for the entire cycle was ≧90% for all cycles;
3) Response rates during saline training cycles were >0.5 responses per second.
Discrimination Testing: Test sessions were identical to training sessions except that responding on either key produced food, and the test compound was administered using a Pretreatment Protocol. In this protocol, a cumulative dose-effect curve for cocaine (0.013-1.3 mg/kg) was determined either alone or following pretreatment with the test compound, which was administered 20 min before the first dose of cocaine.
Mean data from saline and drug cycles during the training day immediately proceeding the initial test day served as the control data for the subsequent test day.

[4] = tested on: cocaine self-administration; experiment: Cocaine self-administration, FR 30, drug component (Example 3)
food-maintained behavior = experiment: Food-maintained responding, FR 30, food components (Example 3)
[5] = i.m. 20 min before session, cocaine 0.003 mg/kg/inj, individual monkeys, hydrobromide

Compound: COc1cc2c(cc1O)C(C1(c3ccccc3Cl)CC1)N(C)CC2 (single isomer, unassigned; (+)) [BTS 73 947, (+)-1-[1-(2-chlorophenyl)cyclopropyl]-7-hydroxy-6-methoxy-2-methyl-1,2,3,4-tetrahydroisoquinoline]
- duration of action ([1]; behavioral models): > 6 h
- time of peak effect post-dose ([1]; behavioral models): 4 h
- ED50 to inhibit locomotion induced by d-amphetamine sulphate ([1]; ip, d-amphetamine sulphate 2.5 mg/kg sc): 0.7 mg/kg
- fold greater potency against limbic DA function (locomotion vs stereotypy) ([1]; ratio of stereotypy and locomotion ED50, ip): ~3.5 fold
- ED50 to inhibit stereotypy induced by d-amphetamine sulphate [2]: 2.4 mg/kg
- ED50 to induce catalepsy (catalepsy): 25.4 mg/kg
- ratio of ED50 to induce catalepsy to ED50 to inhibit amphetamine locomotion (catalepsy): 36
- ED50 for protection of D1-like receptors from EEDQ inactivation (D1-like receptors): 1 mg/kg
- protection of D2-like receptors from EEDQ inactivation (D2-like receptors): no effect
- protection of 5-HT2 receptors from EEDQ inactivation (5-HT2 receptors): no effect
- ED15 (dose induced 15 jerks in the 15 min test period) (D1-receptors): 3.4 mg/kg

Compound: Br.COc1cc2c(cc1O)C(C1(c3ccccc3Cl)CC1)N(C)CC2 (single isomer, unassigned; (+)) [test compound, (+)-1-[1-(2-chlorophenyl)cyclopropyl]-7-hydroxy-6-methoxy-2-methyl-1,2,3,4tetrahydroisoquinoline hydrobromide]
- effect on responding (response rate) during first one to three cycles ([3]; 0.01 and 0.032 mg/kg, in combination with 0.013 and 0.04 mg/kg cocaine): eliminated responding
- fold increase in the cocaine ED50 value ([3]; pretreatment 0.01 mg/kg, monkey 2): 3 fold
- effect on the cocaine discrimination dose-effect curve ([3]; pretreatment 0.01 mg/kg, the other three monkeys (1, 3, 4)): no effect
- effect on the cocaine discrimination dose-effect curve ([3]; pretreatment 0.032 mg/kg, all four monkeys): rightward shifts
- ED50 for cocaine after pretreatment with test compound 0.01 mg/kg ([3]; test compound 0.01 mg/kg 20 min before first cocaine dose, individual monkeys 1-4, hydrobromide): 0.24 mg/kg and 0.23 mg/kg and 0.72 mg/kg
- ED50 for cocaine after pretreatment with test compound 0.032 mg/kg ([3]; test compound 0.032 mg/kg 20 min before first cocaine dose, individual monkeys 1-4, hydrobromide): 0.72 mg/kg and 0.071 mg/kg
- ED50 for decreasing response rates maintained by cocaine (Drug component) [4, 5]: 0.002 mg/kg and 0.001 mg/kg and 0.004 mg/kg
- rightward shift of the peak of the dose-effect function for cocaine self-administration ([4]; lower pretreatment dose (0.003 mg/kg), on average): 3 fold
- surmountability of treatment effects by increased self-administration of higher unit doses of cocaine ([4]; pretreatment 0.003 and 0.01 mg/kg, any monkey): not surmounted
- ED50 (food-maintained behavior; Macaca mulatta, read-out: ED50 for decreasing response rates maintained by food (Food #1, preceded the drug component), i.m. 20 min before session, cocaine 0.003 mg/kg/inj, individual monkeys): 0.003 mg/kg
- ED50 for decreasing response rates maintained by food (Food #1, preceded the drug component) (food-maintained behavior; [5]): 0.002 mg/kg
- ED50 for decreasing response rates maintained by food (Food #2, followed the drug component) (food-maintained behavior; [5]): 0.011 mg/kg and 0.006 mg/kg and 0.002 mg/kg
- effect on food-maintained response rates in the first component of food availability (food-maintained behavior; pretreatment 0.01 mg/kg): appreciably decreased

Compound: COC(=O)[C@H]1[C@@H](OC(=O)c2ccccc2)C[C@@H]2CC[C@H]1N2C.Cl [Cocaine, Cocaine hydrochloride, reference compound]
- substitution for training stimulus (cocaine-appropriate responding) ([3]; cocaine alone 0.4 mg/kg (training dose), all monkeys): Complete substitution
- effect on response rates ([3]; cocaine alone 1.3 mg/kg): decreased response rates
- ED50 for cocaine (50% cocaine-appropriate responding), Cocaine Alone ([3]; cumulative cocaine 0.013-1.3 mg/kg i.m., no pretreatment, individual monkeys 1-4): 0.23 mg/kg
